Reference: publication PMC11083775, “Synthesis, In Silico and Kinetics Evaluation of N-(β-D-glucopyranosyl)-2-arylimidazole-4(5)-carboxamides and N-(β-D-glucopyranosyl)-4(5)-arylimidazole-2-carboxamides as Glycogen Phosphorylase Inhibitors” (International Journal of Molecular Sciences, 2024)

molecular target: T1, rabbit muscle glycogen phosphorylase b (rmGPb) (Oryctolagus cuniculus, UniProt P00489); assay: not given; conditions: cited from earlier work
T1 sequence (P00489 1-843): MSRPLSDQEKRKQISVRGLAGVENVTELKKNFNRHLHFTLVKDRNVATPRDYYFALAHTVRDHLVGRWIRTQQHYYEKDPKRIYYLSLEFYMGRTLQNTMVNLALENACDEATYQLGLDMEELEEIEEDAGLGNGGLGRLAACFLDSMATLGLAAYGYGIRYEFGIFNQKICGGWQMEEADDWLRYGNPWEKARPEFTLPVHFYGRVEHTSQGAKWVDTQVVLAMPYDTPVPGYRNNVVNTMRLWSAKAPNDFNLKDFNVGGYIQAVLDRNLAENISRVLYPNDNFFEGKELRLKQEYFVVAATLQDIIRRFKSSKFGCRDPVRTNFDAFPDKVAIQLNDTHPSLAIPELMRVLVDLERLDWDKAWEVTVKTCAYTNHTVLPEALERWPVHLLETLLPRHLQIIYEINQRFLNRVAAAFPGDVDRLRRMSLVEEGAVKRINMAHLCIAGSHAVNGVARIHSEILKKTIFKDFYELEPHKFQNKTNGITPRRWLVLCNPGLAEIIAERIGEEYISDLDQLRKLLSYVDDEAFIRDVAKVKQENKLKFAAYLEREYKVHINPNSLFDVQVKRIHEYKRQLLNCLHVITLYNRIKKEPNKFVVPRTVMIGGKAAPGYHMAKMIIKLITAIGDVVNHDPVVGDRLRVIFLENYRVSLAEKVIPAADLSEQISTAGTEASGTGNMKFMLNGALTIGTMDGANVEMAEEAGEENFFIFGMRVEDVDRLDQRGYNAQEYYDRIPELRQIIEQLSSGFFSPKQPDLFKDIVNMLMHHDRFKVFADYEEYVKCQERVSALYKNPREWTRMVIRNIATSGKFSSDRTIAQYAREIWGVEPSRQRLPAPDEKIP

Compound	Ki
O=C(N[C@@H]1O[C@H](CO)[C@@H](O)[C@H](O)[C@H]1O)c1nc(-c2ccc3ccccc3c2)no1 [VIIIc]	no inh.
O=C(N[C@@H]1O[C@H](CO)[C@@H](O)[C@H](O)[C@H]1O)c1noc(-c2ccc3ccccc3c2)n1 [VIIc]	no inh.

molecular target: T1, rabbit muscle glycogen phosphorylase b (rmGPb); assay: Kinetics of rabbit muscle GPb inhibition, assayed in the direction of glycogen synthesis; type: biochemical; conditions: 10 μg/mL enzyme, glucose-1-phosphate 4–40 mM, 1% glycogen, 1 mM AMP, at least three independent experiments, ± SD, read-out: Inhibition constant (Ki)
Protocol: Inhibitory constants (Ki) were determined for rabbit muscle glycogen phosphorylase. Enzyme activity was assayed in the direction of glycogen synthesis, as previously published. The experiments were performed using the rabbit muscle phosphorylase b (dephosphorylated, GPb) isoform. Kinetic data for the inhibition of GPb by the compounds were obtained in the presence of 10 μg/mL of the enzyme, varying the concentrations of α-D-glucose-1-phosphate (4–40 mM) and using constant concentrations (1%) of glycogen and AMP (1 mM). The enzymatic activities were presented in the form of a double reciprocal plot (Lineweaver–Burk). The plots were analysed using a non-linear data analysis program. The inhibitor constants (Ki) were determined using secondary plots, replotting the slopes from the Lineweaver–Burk plot against the inhibitor concentrations. The means of the standard errors for all calculated kinetic parameters averaged to less than 10% [40].

Compound	Ki [µM]
O=C(N[C@@H]1O[C@H](CO)[C@@H](O)[C@H](O)[C@H]1O)c1ncc(-c2ccccc2)[nH]1 [Compound 2a, N-(β-D-Glucopyranosyl)-4(5)-phenyl-1H-imidazole-2-carboxamide]	67.4 ± 9.7
O=C(N[C@@H]1O[C@H](CO)[C@@H](O)[C@H](O)[C@H]1O)c1cnc(-c2cccc3ccccc23)[nH]1 [Compound 1b, N-(β-D-Glucopyranosyl)-2-(1-naphthyl)-1H-imidazole-4(5)-carboxamide]	16.2 ± 8.1
O=C(N[C@@H]1O[C@H](CO)[C@@H](O)[C@H](O)[C@H]1O)c1cnc(-c2ccccc2)[nH]1 [Compound 1a, N-(β-D-Glucopyranosyl)-2-phenyl-1H-imidazole-4(5)-carboxamide]	10.4 ± 6.2
O=C(N[C@@H]1O[C@H](CO)[C@@H](O)[C@H](O)[C@H]1O)c1ncc(-c2ccc3ccccc3c2)[nH]1 [Compound 2c, N-(β-D-Glucopyranosyl)-4(5)-(2-naphthyl)-1H-imidazole-2-carboxamide]	3.3 ± 0.1
O=C(N[C@@H]1O[C@H](CO)[C@@H](O)[C@H](O)[C@H]1O)c1cnc(-c2ccc3ccccc3c2)[nH]1 [Compound 1c, N-(β-D-Glucopyranosyl)-2-(2-naphthyl)-1H-imidazole-4(5)-carboxamide]	12.8 ± 3
O=C(N[C@@H]1O[C@H](CO)[C@@H](O)[C@H](O)[C@H]1O)c1ncc(-c2cccc3ccccc23)[nH]1 [Compound 2b, N-(β-D-Glucopyranosyl)-4(5)-(1-naphthyl)-1H-imidazole-2-carboxamide]	4.1 ± 0.8
